Test results: ChEMBL document CHEMBL3507680, “University of Dundee, Gates Library screen for HepG2 cell viability”

Assay: Human HepG2 cell viability assay in 384 well format
Format: toxicity, cell-based
Set-up: dose 125 nL, time 70.5 hour; concentration not given beside the values
Details: HepG2 cells, read-out: Inhibition

Row | Structure (SMILES) | cytotoxicity at 70.5 h [%]
1 | Cc1cc(C2CCCN2Cc2cccc(C(=O)Nc3nccs3)c2)no1 (stereo not drawn) | -14.5
2 | Cc1nc(CN2CC[C@@H]3[C@@H](CCC(=O)N3CCc3c[nH]cn3)C2)co1 | 13
3 | Nc1nc(O)cc(N2CCC(c3cc(Cc4ccccc4)n[nH]3)CC2)n1 | -3.99
4 | CC(=O)Nc1ccc(CN2CCc3[nH]cnc3C2c2nccn2C)cc1 (stereo not drawn) | -3.14
5 | CCn1ncc(CNC(=O)c2cn(CCC3CCCCN3)nn2)c1C (stereo not drawn) | -6.28
6 | CCCc1cc(CNC(=O)Cc2cc(C)no2)on1 | 1.19
7 | CCc1noc(CN(CC)Cc2cc3cc(C)ccc3[nH]c2=O)n1 | -10.7
8 | CN1CCN(c2cnn(CCn3cccn3)c(=O)c2)CC1 | -3.04
9 | Cc1ccccc1C(C(=O)NCCN1CCC(CO)CC1)N(C)C (stereo not drawn) | -3
10 | Cc1nccc(-c2cccc(-c3ccn(CC4CCNC4)n3)c2)n1 (stereo not drawn) | -3.45
11 | COc1ccc(-c2cn(CCn3c(C)cc(C)nc3=O)nn2)cn1 | -9.73
12 | CCc1ccccc1CN1CCN(Cc2ncc[nH]2)[C@H]2CS(=O)(=O)C[C@H]21 | -3.46
13 | Cc1cc(NC(C)Cc2cccs2)n2nccc2n1 (stereo not drawn) | -14.7
14 | Cc1ccc(C(=O)N2C[C@H](NS(C)(=O)=O)[C@@H](C(C)C)C2)cc1F | 2.48
15 | Cc1cc(Cl)ccc1C(=O)C1CCCN(Cc2cnc(N(C)C)s2)C1 (stereo not drawn) | -5.77
16 | Cc1nn(C)c(Oc2ccc(Cl)cc2)c1CN1CC[C@H](CO)[C@@H](O)C1 | -12.9
17 | CC(C)=CCN1CCN(CCCc2ccccc2)[C@H]2CS(=O)(=O)C[C@H]21 | -6.15
18 | COCCN1CC(Nc2nc(C3CCCC3)nc3c2cnn3C)CC1=O (stereo not drawn) | 18.4
19 | O=C(c1cc(Cn2ccc3ccccc32)[nH]n1)N1CCOCC1 | -0.75
20 | Cc1nc(CN(C)c2nccc(C(F)(F)F)n2)cs1 | -7.33
21 | Nc1ncccc1CN1C[C@@H]2CC[C@H](C1)N(CC1CC1)C2=O | 28
22 | CCC(=O)N1CCc2[nH]cnc2C12CCN(C1CCOCC1)CC2 | -4.44

Row | Structure (SMILES) | cytotoxicity at 70.5 h [%]
23 | O=C(NCc1c[nH]c(=O)[nH]c1=O)C1CCOc2ccccc2C1 (stereo not drawn) | 8.26
24 | CCn1nc(C)c(CCNC(=O)C2CCCN(C(=O)COC)C2)c1C (stereo not drawn) | 18
25 | CC(C)C1CN(S(=O)(=O)C2CC2)CCCN1Cc1ccc(F)cc1 (stereo not drawn) | -3.51
26 | COC(=O)c1ccn(CC(=O)Nc2nn(CC3CC3)c3ccccc23)n1 | -0.998
27 | CN1CSC[C@H]1C(=O)N1CCN(Cc2cccc(Cl)c2)CC1 | -5.08
28 | COCC1CCN(C(=O)c2cc(-c3ccco3)nc3c(Cl)cccc23)C1 (stereo not drawn) | -20.7
29 | Cc1ccc(C2(O)CCN(C(=O)CCn3ccc(=O)[nH]c3=O)CC2)nc1 | -10.1
30 | COc1cc(C)ccc1OCc1nc(C(=O)N2CCCC2)co1 | 0.58
31 | CCN(CC)C(=O)Cn1cc(-c2nc(-c3ccccc3C)no2)nn1 | -9.94
32 | CCOCCNC(=O)c1cccc(S(=O)(=O)NC[C@@H]2C[C@H](F)CN2)c1 | 31.3
33 | COCc1cc(CN(C)C(C(=O)O)c2cc(C)c(OC)c(C)c2)n[nH]1 (stereo not drawn) | -2.3
34 | Cc1cnc(-n2cnnc2)c(-c2cccc3c2CCNC3)c1 | -7.78
35 | CN(Cc1ccccc1)S(=O)(=O)N1C[C@H](C2CC2)[C@@H](N)C1 | -1.23
36 | O=C(c1c[nH]c(=O)[nH]c1=O)N1CCCC(c2nccn2CC2CCC2)C1 (stereo not drawn) | -24.3
37 | CC/C=C(\C)CN1CCC(CNC(=O)c2ccc(=O)[nH]c2)CC1 | -6.38
38 | Cc1ccc2nc(CN3CCC(O)(CN4CCCC4)CC3)cc(O)c2c1 | -7.1
39 | CN(CC1Cc2ccccc2CN1C)C(=O)Cc1cccs1 (stereo not drawn) | -6.46
40 | CCn1c(Cn2ccnc2)nnc1C1CCN(Cc2ccc(C)o2)CC1 | 5.39
41 | c1cncc(NCCNC2CCSC2)c1 (stereo not drawn) | 14.7
42 | Cc1nonc1C1CCCN1C(=O)c1cc2n(n1)CCCN(C(C)C)C2 (stereo not drawn) | -6.2
43 | O=C(NCCN1CCOC1=O)c1cc(-c2ccccc2)on1 | 33.3
44 | CN1CC2(CCCN(Cc3nnc(-c4ccco4)o3)CC2)OC1=O (stereo not drawn) | -0.887

Row | Structure (SMILES) | cytotoxicity at 70.5 h [%]
45 | CSCc1nc(CCNC(=O)c2cnn(C(C)C)c2)cs1 | -1.66
46 | O=S1(=O)C[C@@H]2[C@H](C1)N(Cc1cccc(O)c1)CCN2CC1CC1 | -5.99
47 | CCCc1cc(C(=O)NC2CCCCNC2=O)[nH]n1 (stereo not drawn) | -5.95
48 | CC(=O)Nc1ccc2nc(-c3nccn3CC(C)(C)CO)ccc2c1 | -11
49 | C1CCC(CNC2CCSCC2)(N2CCOCC2)CC1 | 3.74
50 | COc1ccc(Oc2ccc(C(F)(F)F)cn2)cc1CN1CCCC1 | -11.6
51 | Oc1cc(CN2CCC(O)(Cn3ccnc3)CC2)nc2ccc(F)cc12 | -7.61
52 | Cc1ccc2nc(C)c(C)c(C(=O)NCCCn3cnnc3)c2c1 | -2.61
53 | Cc1nc2c(c(N3CCN(c4ncccc4C(N)=O)CC3)n1)CCNC2 | -3.51
54 | COCCN1C[C@H]2CC[C@@H]1CN(CC(=O)Nc1ccn(C)n1)C2 | -9.39
55 | COc1cccc(N2CCN(C(C(=O)O)c3ccc(OC)nc3)CC2)c1 (stereo not drawn) | -9.28
56 | CCN(CC)Cc1cc(C(=O)N2CC[C@@]3(O)CCCC[C@H]3C2)c(C)o1 | -9.79
57 | CC(C)CN1CC2(CCN(C(=O)C(O)c3cccc(Cl)c3)CC2)CC1=O (stereo not drawn) | 1.55
58 | CCN1CCC2(CCC1=O)CN(c1nccc(N)n1)CCN2C (stereo not drawn) | -4.72
59 | NCc1cn(CC2CCCN(C(=O)NCCc3ccc(F)cc3)C2)nn1 (stereo not drawn) | 22.7
60 | Cn1cnc(S(=O)(=O)N2C[C@@H]3CC[C@H](C2)N(Cc2cscn2)C3=O)c1 | -6.52
61 | CC(C)c1noc(CC[C@@H]2CCCN3CCCC[C@H]23)n1 | -0.439
62 | O=C(Cn1nnc(-c2ccc(F)cc2)n1)N1CCOCC(O)C1 (stereo not drawn) | -1.8
63 | CCN(Cc1ccc(C(C)C)cc1)C(=O)c1csc(CN(C)C)n1 | 7.36
64 | CC(C)=CCN1CCc2onc(-c3ccc(F)c(F)c3)c2C1 | -11.7
65 | O=C(O)c1cccnc1CN1CCCCC1CCc1ccccn1 (stereo not drawn) | -14.4
66 | CCc1ccc2nc(C)cc(C(=O)N[C@@H]3C[C@@H](CO)N(C)C3)c2c1 | -3.88

Row | Structure (SMILES) | cytotoxicity at 70.5 h [%]
67 | CCN(CC)Cc1cc(C(=O)N2CCC3(CC2)NCCNC3=O)c(C)o1 | 1.97
68 | Cn1ccnc1-c1ccc(NCc2cn3c(n2)SCC3)nn1 | -1.93
69 | CN(C)S(=O)(=O)N1CCCCC1CCc1ccc(O)cc1 (stereo not drawn) | -6.59
70 | O=C(CN1CCCCC1=O)N1CCC2(CC1)[C@H](O)C[C@@H]2O | -3.31
71 | O=C(CSc1ccncc1)NC1CC(=O)N(CCc2ccccc2)C1 (stereo not drawn) | -8.43
72 | CN(C)CC1(O)CCN(C(=O)c2cnc(CN3CCCC3)s2)C1 (stereo not drawn) | 0.326
73 | CN(C)c1nc2c(c(N3CCc4c(c(CO)nn4C)C3)n1)CCNC2 | 46.5
74 | Cc1ccc2c(c1)c(CNC(C)Cn1nc(C)cc1C)nn2C (stereo not drawn) | 2.8
75 | Cc1ccc(CN2C[C@@H](C(=O)O)[C@H](c3ccccn3)C2)o1 | 17.9
76 | Cc1cn2cc(-c3nc4c([nH]3)CCCNC4=O)nc2s1 | -10.3
77 | Cn1cnnc1CN1CCC2(CCC(=O)N(Cc3ccccn3)C2)CC1 | -6.09
78 | CC(C)CN1CCN(S(=O)(=O)c2cn(C)cn2)[C@H]2CS(=O)(=O)C[C@H]21 | -9.12
79 | CCOCCOc1ccccc1C(=O)N1C[C@H](C2CC2)[C@@H](N)C1 | 27.2
80 | CC(C)Cc1cc(C(=O)NCCc2nnc(N)s2)n(C)n1 | -23.5
81 | CCc1c(C)nn(CCNC(=O)Cc2csc(C)n2)c1C | -6.58
82 | Cc1cc(-c2cc(-c3cc(CC(=O)O)cs3)nc(N)c2C#N)oc1C | -12.1
83 | CCn1nc(NC(=O)Cn2ccc(C(C)=O)n2)c2ccccc21 | 26.9
84 | CNC1CCN(C2CCN(c3ccc(-c4ccco4)cc3)CC2)CC1 | 8.23
85 | CC(C)=CCN1CCN(C(=O)c2cc(C(C)C)no2)[C@H]2CS(=O)(=O)C[C@H]21 | -8.12
86 | CCn1cc(-c2cc(-c3ccn(C)c3)nc(N)c2C#N)cc1C#N | 5.48
87 | CN1CCN(C(=O)c2cccc(S(=O)(=O)NCC3(C)COC3)c2)CC1 | -9.16
88 | COC(=O)c1ccc2ccn(CC3CCCCO3)c(=O)c2c1 (stereo not drawn) | -4.76

Row | Structure (SMILES) | cytotoxicity at 70.5 h [%]
89 | CC(=O)N1C[C@@H]2CC[C@H](C1)N(C(=O)CCc1n[nH]c3c1CCCC3)C2 | 1.78
90 | Cc1ccc(CN2CCC(n3cc(CN4CCC(O)CC4)nn3)CC2)s1 | -6.27
91 | CCc1ncc2c(n1)CN(C(=O)CCCc1ccc(OC)cc1)C2 | -6.31
92 | Cc1ncc(C(=O)N2CCCC(C(=O)CCc3ccccc3)C2)s1 (stereo not drawn) | -13.8
93 | CN1CCN2C[C@@H](NC(=O)c3nc4ccccc4[nH]3)C[C@H]2C1 | -4.68
94 | CCNc1ccnc(-c2ccnc3c2ccn3C)n1 | -2.33
95 | CCN(CCc1nc2cc(C)ccc2[nH]1)C(=O)[C@@H](N)CCSC | -4.38
96 | COC1CCN(C(=O)Cn2cccc(C(F)(F)F)c2=O)C1 (stereo not drawn) | -8.78
97 | C[C@@H]1CN(Cc2nc(C(N)=O)no2)CC[C@@]1(O)C1CCOCC1 | -8.91
98 | Cc1cc2c(N3CCC(N(C)Cc4nccs4)CC3)ncnc2s1 | 9.35
99 | Cc1csc2c(N3CCC(Cn4cc(C(C)(C)O)nn4)CC3)ncnc12 | -9.53
100 | CC(C)N1CCCn2nc(C(=O)NCc3ccccc3F)cc2C1 | -5.27
101 | Cn1cc(CN2CCCC23CCN(c2nc4ccccc4s2)CC3)cn1 | -4.41
102 | CNS(=O)(=O)CCNC(=O)c1coc(COc2ccc(F)cc2)n1 | -4.33
103 | Cc1nc(CN(C)C(=O)c2ccc(Cn3cnnn3)cc2)cs1 | 21.4
104 | COc1cccc(C2CCN(c3ccc4cc[nH]c4n3)C2)c1OC (stereo not drawn) | 1.26
105 | Cc1nccc(N[C@H]2CN(C(=O)CCN3CCCC3=O)C[C@@H]2C(C)C)n1 | -19.6
106 | O=C1CCCCCN1Cc1cccc(OC(F)F)c1 | -5.05
107 | O=C(O)c1cnc(N2CC[C@H](N3CCOCC3)[C@H](CCCO)C2)c(Cl)c1 | -7.02
108 | O=C(NCCc1cnccn1)C1(N2CCCCC2)Cc2ccccc2C1 | -8.18
